The results in this text go back to ChEMBL document CHEMBL1201862, “PubChem BioAssay data set” (2004).

Usually GI50 stands for the concentration at which growth is held to half of that of the control. In general, AC50 refers to the midpoint of the concentration-response curve, whichever way the signal moves. The term EC50 denotes the concentration that produces a half-maximal response. The term IC50 denotes the midpoint of a concentration-inhibition curve.

Structures are written as SMILES. Activity calls are given as the source filed them.

The subject of one assay is P388/ADR. As to the kind of experiment: cells. Type of assay: functional. Particulars: Mus musculus.
The subject of another assay is P388. As to the kind of experiment: cells. The conditions noted are these: Mus musculus. Type of assay: functional.
The next assay has as its system SN12K1. Description: cells. The conditions noted are these: Homo sapiens. Type of assay: functional.
The target of assay [1] is T1, Replicative DNA helicase DnaB (Mycobacterium tuberculosis, UniProt P9WMR3).
T1 sequence (P9WMR3 whole entry): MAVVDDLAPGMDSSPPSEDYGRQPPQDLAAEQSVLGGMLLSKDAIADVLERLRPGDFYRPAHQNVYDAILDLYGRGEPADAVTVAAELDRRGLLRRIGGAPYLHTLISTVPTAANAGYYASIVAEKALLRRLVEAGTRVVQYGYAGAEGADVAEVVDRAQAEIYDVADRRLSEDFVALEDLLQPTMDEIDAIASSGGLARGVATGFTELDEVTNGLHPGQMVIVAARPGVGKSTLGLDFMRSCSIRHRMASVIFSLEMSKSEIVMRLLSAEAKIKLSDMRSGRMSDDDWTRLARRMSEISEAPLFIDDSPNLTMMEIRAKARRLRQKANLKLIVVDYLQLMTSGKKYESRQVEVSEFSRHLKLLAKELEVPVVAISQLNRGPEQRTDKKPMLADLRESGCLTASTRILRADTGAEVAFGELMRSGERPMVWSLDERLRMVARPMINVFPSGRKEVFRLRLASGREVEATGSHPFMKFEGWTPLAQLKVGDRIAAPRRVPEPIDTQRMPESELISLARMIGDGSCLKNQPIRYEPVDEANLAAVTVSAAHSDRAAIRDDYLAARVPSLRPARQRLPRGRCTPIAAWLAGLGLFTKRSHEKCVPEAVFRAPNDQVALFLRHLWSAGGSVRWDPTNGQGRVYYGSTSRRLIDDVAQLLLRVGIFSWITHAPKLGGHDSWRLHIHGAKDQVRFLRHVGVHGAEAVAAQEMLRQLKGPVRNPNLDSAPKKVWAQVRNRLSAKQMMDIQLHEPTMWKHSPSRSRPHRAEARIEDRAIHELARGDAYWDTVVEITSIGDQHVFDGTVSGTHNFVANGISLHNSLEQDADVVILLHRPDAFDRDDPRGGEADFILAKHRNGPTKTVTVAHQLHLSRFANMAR
Description: DnaB intein splicing inhibitors, dose response, biochemical, cell-free fluorescence (AID 449749). Type of assay: functional.

A further assay addresses T2, Protein RecA (Mycobacterium tuberculosis, UniProt P9WHJ3).
T2 sequence (P9WHJ3 whole entry): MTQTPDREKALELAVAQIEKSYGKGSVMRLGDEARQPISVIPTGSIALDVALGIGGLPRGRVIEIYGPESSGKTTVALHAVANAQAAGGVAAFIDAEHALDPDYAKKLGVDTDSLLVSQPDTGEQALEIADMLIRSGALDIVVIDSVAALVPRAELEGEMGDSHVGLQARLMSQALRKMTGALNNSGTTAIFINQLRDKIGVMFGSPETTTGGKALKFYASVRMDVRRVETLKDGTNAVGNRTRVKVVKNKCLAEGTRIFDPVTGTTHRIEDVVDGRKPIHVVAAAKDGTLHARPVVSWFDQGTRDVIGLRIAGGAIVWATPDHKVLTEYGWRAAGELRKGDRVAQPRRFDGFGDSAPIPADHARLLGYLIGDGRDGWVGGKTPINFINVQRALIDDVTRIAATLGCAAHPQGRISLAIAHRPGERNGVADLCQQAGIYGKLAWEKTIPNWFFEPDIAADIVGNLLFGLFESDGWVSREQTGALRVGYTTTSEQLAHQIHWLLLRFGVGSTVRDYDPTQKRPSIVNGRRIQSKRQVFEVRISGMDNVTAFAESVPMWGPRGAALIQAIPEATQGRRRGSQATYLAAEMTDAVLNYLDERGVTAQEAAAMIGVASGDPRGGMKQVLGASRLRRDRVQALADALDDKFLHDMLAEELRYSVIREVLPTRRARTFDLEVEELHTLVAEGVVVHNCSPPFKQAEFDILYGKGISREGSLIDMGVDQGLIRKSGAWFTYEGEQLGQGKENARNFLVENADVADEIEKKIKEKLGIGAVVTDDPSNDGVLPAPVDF
Description: Fluorescence Cell-Free Homogeneous Dose Retest to Identify Inhibitors of RecA-Intein Splicing Activity. [Related pubchem assays (depositor defined):AID2097, AID2223, AID489010, AID492950]. Type of assay: functional.

Assay [2] concerns the target T3, Fatty acid synthase (Homo sapiens, UniProt P49327). Description: inhibition of human FAS-TE enzyme activity – biochemical, kinetic fluorescence intensity, dose response (AID 624326).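 Note: rate of fluorescence rise from hydrolysis of a fluorogenic O-methyl fluorescein ester substrate.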 Type of assay: functional.
Assay [3] has as its target T3, Fatty acid synthase. As to the kind of experiment: inhibition of human FAS-TE enzyme activity – biochemical, endpoint fluorescence intensity, uHTS hits, dose response (AID 624327).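 Note: fluorescence from hydrolysis of an O-methyl fluorescein acyl ester substrate by the enzyme.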 Type of assay: functional.
Assay [4] addresses T4, Ubiquitin-conjugating enzyme E2 N (Homo sapiens, UniProt P61088).
T4 sequence (P61088 whole entry): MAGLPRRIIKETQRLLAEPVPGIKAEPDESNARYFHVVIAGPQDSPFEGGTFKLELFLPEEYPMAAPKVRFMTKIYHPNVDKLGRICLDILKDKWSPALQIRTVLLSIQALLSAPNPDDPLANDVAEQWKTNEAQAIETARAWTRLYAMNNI
Type of assay: functional.

In assay [5] the target is T5, Apoptotic protease-activating factor 1 (Homo sapiens, UniProt O14727).
T5 sequence (O14727 whole entry): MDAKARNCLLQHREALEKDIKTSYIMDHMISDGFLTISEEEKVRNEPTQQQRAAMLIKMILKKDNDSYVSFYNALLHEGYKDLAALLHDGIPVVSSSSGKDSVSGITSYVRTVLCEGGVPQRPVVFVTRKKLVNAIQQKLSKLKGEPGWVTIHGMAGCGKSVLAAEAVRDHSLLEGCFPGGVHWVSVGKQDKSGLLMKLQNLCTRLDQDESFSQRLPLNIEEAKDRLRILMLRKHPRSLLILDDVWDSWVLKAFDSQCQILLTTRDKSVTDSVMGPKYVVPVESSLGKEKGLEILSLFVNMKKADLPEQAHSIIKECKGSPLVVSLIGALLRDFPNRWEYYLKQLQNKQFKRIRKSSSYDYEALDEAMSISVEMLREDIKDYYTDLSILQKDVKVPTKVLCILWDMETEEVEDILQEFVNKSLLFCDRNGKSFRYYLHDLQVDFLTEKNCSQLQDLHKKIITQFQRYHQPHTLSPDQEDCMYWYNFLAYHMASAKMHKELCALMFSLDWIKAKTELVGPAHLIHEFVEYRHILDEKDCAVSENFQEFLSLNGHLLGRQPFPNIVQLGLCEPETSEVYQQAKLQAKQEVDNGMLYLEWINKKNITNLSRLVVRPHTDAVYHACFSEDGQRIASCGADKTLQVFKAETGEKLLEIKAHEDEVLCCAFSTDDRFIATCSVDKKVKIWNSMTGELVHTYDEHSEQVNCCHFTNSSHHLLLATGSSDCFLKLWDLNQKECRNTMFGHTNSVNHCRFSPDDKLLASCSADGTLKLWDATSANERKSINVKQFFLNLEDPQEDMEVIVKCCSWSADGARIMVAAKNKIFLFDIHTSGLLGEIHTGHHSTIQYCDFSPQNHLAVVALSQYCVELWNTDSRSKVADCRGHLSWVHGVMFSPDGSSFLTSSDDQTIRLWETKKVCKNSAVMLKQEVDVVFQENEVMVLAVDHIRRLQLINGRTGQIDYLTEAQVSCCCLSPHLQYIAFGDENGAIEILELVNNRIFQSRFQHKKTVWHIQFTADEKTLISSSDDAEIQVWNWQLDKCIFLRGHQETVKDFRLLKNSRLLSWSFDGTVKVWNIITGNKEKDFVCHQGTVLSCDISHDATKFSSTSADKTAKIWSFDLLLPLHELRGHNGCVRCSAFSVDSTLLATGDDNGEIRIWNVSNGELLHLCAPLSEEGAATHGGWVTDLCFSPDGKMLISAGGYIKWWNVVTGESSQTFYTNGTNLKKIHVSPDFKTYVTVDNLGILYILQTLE
Type of assay: functional.

In a further assay the target is Paired box protein Pax-8 (Homo sapiens, UniProt Q06710). Description: PAX8 transcriptional activity inhibition in RMG-I – RMG-I cells, luciferase, cherry-pick, dose response (AID 687027).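 Note: luciferase reporter driven by Pax8 target thyroperoxidase promoter measured by SteadyGlo luminescence.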 Type of assay: functional, cell-based.
Chain of Paired box protein Pax-8 (Q06710 whole entry): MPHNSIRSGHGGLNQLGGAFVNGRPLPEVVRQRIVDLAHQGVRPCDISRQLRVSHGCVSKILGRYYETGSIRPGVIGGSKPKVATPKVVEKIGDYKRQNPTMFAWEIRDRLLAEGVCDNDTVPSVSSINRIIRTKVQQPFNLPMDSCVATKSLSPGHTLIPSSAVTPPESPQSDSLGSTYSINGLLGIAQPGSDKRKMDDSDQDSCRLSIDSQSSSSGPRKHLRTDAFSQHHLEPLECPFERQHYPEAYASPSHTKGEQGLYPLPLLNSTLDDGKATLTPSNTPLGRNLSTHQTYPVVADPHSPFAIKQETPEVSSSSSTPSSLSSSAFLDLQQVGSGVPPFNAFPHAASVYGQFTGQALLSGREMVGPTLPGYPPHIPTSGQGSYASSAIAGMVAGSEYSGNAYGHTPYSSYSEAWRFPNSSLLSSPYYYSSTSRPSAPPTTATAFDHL

T3 sequence (P49327 whole entry): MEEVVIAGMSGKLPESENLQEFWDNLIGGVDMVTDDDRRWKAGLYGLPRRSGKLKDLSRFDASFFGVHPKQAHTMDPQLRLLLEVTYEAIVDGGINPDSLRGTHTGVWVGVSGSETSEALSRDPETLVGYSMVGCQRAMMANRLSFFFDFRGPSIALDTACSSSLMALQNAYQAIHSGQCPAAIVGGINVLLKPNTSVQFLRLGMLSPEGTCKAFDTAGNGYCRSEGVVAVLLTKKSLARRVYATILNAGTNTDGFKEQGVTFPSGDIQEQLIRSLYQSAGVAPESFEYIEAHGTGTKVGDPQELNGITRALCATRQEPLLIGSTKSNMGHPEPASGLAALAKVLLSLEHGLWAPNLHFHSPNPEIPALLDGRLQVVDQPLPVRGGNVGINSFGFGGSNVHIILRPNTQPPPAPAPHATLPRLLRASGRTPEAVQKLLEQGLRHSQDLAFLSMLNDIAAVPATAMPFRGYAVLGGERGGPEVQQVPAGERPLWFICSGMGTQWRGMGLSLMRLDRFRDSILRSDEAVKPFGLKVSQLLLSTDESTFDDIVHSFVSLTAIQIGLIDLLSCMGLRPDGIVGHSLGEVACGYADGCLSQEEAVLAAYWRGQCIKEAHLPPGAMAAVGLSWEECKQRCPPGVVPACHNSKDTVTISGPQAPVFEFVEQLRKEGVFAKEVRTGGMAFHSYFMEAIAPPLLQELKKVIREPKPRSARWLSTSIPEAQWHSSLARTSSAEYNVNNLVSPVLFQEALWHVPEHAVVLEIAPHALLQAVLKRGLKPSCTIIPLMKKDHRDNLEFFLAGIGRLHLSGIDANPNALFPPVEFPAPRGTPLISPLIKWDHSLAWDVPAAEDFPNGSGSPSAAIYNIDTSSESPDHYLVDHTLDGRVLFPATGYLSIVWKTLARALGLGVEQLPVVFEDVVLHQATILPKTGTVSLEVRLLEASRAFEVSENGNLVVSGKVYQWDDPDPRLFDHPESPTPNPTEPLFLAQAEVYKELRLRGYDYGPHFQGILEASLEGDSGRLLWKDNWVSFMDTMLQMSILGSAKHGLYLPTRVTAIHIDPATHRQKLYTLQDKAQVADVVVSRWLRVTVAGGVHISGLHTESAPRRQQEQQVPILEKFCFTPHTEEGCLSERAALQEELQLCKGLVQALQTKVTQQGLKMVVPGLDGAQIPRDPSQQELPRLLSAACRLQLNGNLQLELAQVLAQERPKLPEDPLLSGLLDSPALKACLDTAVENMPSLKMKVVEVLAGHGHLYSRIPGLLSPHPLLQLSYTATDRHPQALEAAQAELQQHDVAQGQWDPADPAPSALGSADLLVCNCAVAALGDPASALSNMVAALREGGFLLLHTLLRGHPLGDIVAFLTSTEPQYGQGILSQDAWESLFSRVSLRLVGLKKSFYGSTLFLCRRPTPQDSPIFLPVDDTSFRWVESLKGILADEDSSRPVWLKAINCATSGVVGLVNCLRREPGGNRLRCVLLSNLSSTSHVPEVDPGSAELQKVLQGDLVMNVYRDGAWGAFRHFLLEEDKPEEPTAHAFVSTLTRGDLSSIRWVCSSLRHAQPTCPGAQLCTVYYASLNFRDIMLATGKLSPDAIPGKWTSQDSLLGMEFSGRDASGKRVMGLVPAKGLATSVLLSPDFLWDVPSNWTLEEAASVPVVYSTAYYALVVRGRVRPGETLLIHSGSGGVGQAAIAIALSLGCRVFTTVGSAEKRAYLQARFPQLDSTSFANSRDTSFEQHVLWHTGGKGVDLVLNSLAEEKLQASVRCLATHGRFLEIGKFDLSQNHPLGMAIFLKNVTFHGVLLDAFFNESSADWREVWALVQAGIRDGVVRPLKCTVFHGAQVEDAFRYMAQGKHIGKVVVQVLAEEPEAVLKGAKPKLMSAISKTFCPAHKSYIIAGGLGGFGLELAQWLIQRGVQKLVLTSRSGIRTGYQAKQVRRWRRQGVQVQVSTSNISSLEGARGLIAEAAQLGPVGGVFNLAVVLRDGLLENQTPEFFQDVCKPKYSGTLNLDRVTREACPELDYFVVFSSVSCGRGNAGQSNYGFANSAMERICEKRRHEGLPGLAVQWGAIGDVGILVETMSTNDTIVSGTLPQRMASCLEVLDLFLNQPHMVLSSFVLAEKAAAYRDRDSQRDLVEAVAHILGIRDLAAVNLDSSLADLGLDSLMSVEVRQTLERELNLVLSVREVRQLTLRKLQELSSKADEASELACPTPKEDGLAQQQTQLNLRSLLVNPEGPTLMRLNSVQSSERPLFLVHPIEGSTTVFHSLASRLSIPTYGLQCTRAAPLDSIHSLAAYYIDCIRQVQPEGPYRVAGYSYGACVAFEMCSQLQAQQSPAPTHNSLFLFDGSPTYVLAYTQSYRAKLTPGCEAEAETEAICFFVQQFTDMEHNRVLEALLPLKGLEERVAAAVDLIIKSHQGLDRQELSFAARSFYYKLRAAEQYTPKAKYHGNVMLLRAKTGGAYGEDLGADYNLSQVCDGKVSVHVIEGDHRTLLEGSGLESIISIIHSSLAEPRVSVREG

As for `O=C1Sc2sc(=S)sc2SC1c1ccccc1` (stereo not given), the GI50 was 23.7 µM (inactive) in the assay on P388/ADR, 22.5 µM (inactive) in the assay with P388 and 25.1 µM (inactive) in the assay on SN12K1.

In the case of `CC1=NN(c2ccccc2)C(=O)C1=C(C)C`, in assay [1], the AC50 is 5.6 µM (active). The EC50 at Protein RecA was 2.46 µM (active).

Consider `O=C(c1ccc(N2CCN(CCO)CC2)nc1)N1CCOCC1`, for which the AC50 in assay [1] is > 380 µM (inactive). On Protein RecA, the EC50 is > 380 µM (inactive).

In the case of `Cc1sc(N2CCN(S(=O)(=O)c3ccc4c(c3)NC(=O)CO4)CC2)nc1-c1ccccc1`, the IC50 is 4.04 µM (active) at Fatty acid synthase [2] and 4.15 µM (active) on Fatty acid synthase [3].

With `C/C(CC(=O)Nc1cc(C)ccn1)=N\NC(=O)c1ccncc1`, the half-maximal activity concentration (AC50) in [1] is 7.32 µM (active). For the same compound, the EC50 at Protein RecA is 4.03 µM (active).

For the compound `CCCc1n[nH]c(O)c1C(c1ccc(Cl)cc1)C(C#N)C#N` (stereo not given), the AC50 in assay [1] is 8.44 µM (active). Besides, the EC50 on Protein RecA was 4.14 µM (active).

In the case of `O=C(NCc1ccc2c(c1)OCO2)c1ccc(C2SCC(=O)N2Cc2ccco2)cc1` (stereo not given), the IC50 on Fatty acid synthase [2] was 5.95 µM (active); at Fatty acid synthase [3], 8.5 µM (active).

For the compound `C=C1C(C)C2C(Cc3ccccc3)NC(=O)C23OC(=O)/C=C\CC(=O)CCC(C)C/C=C/C3C1O` (stereo not given), the GI50 in the assay on P388/ADR is 0.224 µM (active); with P388, 0.0552 µM (active); in the assay with SN12K1, 0.444 µM (active).

As for `C[C@H](NC(=O)c1[nH]cnc1C(=O)N[C@@H](CCCCNC(=O)OC(C)(C)C)C(=O)OC(C)(C)C)C(=O)OC(C)(C)C`, the IC50 on Fatty acid synthase [2] was 2.6 µM (active); at Fatty acid synthase [3], 2.95 µM (active).

For the compound `COC(=O)C1=C(C)N(Cc2ccccc2)C(NCCc2c[nH]c3ccccc23)=N[C@H]1c1cccc(C(F)(F)F)c1`, the IC50 in assay [4] is > 20 µM (inactive); in assay [5], 71 µM (active).

Take `COc1cc(/C=C/C(=O)Oc2ccc(NC(C)=O)cc2)ccc1C(=O)O/C=C/c1ccccc1`: the results for the GI50 with P388/ADR, with P388 and in the assay with SN12K1 were 8.02 µM (inactive), 18.8 µM (inactive) and > 100 µM (inactive), respectively.

Regarding `CC(=O)OC1CCC2(C)C(CCC3C2CCC2(C)C(c4ccc(=O)oc4)C(OC(C)=O)CC32O)C1` (stereo not given), the GI50 in the assay with P388/ADR was 40.9 µM (inactive); in the assay on P388 it was 14.6 µM (inactive); in the assay with SN12K1, 0.0144 µM (active).

Take `CO[C@H]1Nc2c(ccc(C)c2O)C(=O)N2C=C(/C=C/C(N)=O)C[C@@H]12` [ANTHRAMYCIN METHYL ETHER]: the GI50 in the assay on P388/ADR is 0.101 µM (active); in the assay with P388, 0.0436 µM (active); in the assay with SN12K1, 0.0197 µM (active).

With `Cc1cccc(OCC(=O)N/N=C/c2cc([N+](=O)[O-])ccc2N2CCOCC2)c1`, the concentration for half-maximal inhibition (IC50) on Fatty acid synthase [2] is 8.84 µM (active); at Fatty acid synthase [3] it was 9.22 µM (active).

Consider `COc1ccc2[nH]c3c(c2c1)CCN1C(=O)C(CC(=O)NC(C)(C)C)C[C@H](C(=O)N2CCOCC2)[C@@]31CCC1CCCC1` (stereo not given in full), for which the IC50 is 7.48 µM (active) at Fatty acid synthase [2] and 8.32 µM (active) on Fatty acid synthase [3].

In the case of `COc1cc(C(=O)NCC(=O)N/N=C/c2cccc(OC(=O)c3ccco3)c2)cc(OC)c1OC`, the AC50 in [1] was 36 µM (active). Also, the EC50 on Protein RecA is 16.6 µM (active).

Regarding `COc1ccccc1OCCNC(=O)c1cccc(S(=O)(=O)N2CCN(Cc3ccccc3)CC2)c1`, the IC50 in assay [4] is > 20 µM (inactive); in assay [5], > 100 µM (inactive).

`N[C@H](C(=O)O)[C@@H]1CC(Cl)=NO1` [ACIVICIN]: the GI50 with P388/ADR is 0.471 µM (active); with P388, 0.242 µM (active); with SN12K1 it was 1.13 µM (inactive).

Take `CCOC(=O)C1CCCN(c2nc3c(C)cccn3c(=O)c2/C=C(\C#N)C(=O)NCc2ccco2)C1` (stereo not given): the IC50 at Fatty acid synthase [2] is 8.23 µM (active); at Fatty acid synthase [3] it was 16.2 µM (active).

Consider `CN(C)c1cc(N/N=C/c2ccccc2C(F)(F)F)nc(N(C)C)n1`, for which, in assay [5], the IC50 is 5.07 µM (active).

As to `C=C(C)c1nc(Oc2ccccc2)nc(Oc2ccccc2)n1`, the results for the GI50 in the assay on P388/ADR, in the assay on P388 and in the assay with SN12K1 were 0.824 µM (active), 1.17 µM (inactive) and 3.35 µM (inactive), respectively. On Paired box protein Pax-8, the AC50 is 3.04 µM (active).

As to `CNC=O`, the GI50 is > 10000 µM (inactive) with P388/ADR, > 5620 µM (inactive) in the assay on P388 and > 10000 µM (inactive) in the assay on SN12K1.

Consider `OC[C@H]1O[C@@H](n2cnc3cncnc32)[C@H](O)[C@@H]1O` [NEBULARINE], for which the figures for the GI50 in the assay with P388/ADR, with P388 and in the assay with SN12K1 were 0.305 µM (active), 0.321 µM (active) and 1.48 µM (inactive), respectively.
